Measurements: patent US12686665B2, “Bicyclic fused ring derivative or salt thereof and pharmaceutical composition comprising same” (YUHAN CORPORATION, priority 2021, dated 2026)
Structures can show the parent of a compound that is named as a salt.

Columns and labels:
Type in all cases: biochemical
[1] = target: T1, recombinant human Lysyl Oxidase-Like 2 (LOXL2) (Homo sapiens, UniProt Q9Y4K0); assay: Amplex Red HRP-coupled amine oxidase assay, recombinant human LOXL2; settings: 60 min incubation with enzyme at 37° C., putrescine substrate, read-out: Inhibitory activity (IC50, nM) human LOXL2
T1 construct: purchased R&D systems
T1 sequence (Q9Y4K0 26-774): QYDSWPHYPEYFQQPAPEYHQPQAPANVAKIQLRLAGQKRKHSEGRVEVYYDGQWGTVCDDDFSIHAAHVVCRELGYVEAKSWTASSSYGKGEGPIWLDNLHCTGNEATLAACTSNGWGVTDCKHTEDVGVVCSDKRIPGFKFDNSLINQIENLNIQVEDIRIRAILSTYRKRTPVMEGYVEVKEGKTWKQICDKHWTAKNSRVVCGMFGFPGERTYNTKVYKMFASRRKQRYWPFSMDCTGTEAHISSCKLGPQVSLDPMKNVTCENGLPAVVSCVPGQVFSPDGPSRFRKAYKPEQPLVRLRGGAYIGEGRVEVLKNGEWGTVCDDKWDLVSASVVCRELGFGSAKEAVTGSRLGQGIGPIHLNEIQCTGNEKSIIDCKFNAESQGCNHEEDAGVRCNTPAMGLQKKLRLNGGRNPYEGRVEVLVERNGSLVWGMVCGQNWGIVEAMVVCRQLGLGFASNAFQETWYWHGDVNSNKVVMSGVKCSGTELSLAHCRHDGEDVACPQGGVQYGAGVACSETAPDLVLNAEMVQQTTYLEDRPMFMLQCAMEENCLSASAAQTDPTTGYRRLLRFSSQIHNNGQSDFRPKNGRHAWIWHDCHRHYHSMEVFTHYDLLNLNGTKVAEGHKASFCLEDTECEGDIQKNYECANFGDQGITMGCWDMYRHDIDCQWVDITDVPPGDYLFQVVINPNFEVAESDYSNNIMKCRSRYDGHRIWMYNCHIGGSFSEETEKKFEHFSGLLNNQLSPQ
Method in brief: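 Putrescine substrate (30 mM) in 50 mM sodium phosphate pH 7.4, 37 °C; compounds preincubated 60 min with enzyme, 1% DMSO final, six-point curves. H2O2 detected via 400 μM Amplex Red/2 U/mL HRP, fluorescence (ex 530/em 590 nm) after 1 h; IC50 from four-parameter logistic fit of % signal reduction.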

[2] = target: T2, recombinant human MAO-A (monoamine oxidase-A) (Homo sapiens, UniProt P21397); assay: Amplex Red HRP-coupled amine oxidase assay, recombinant human MAO-A; settings: 0.5 mM tyramine substrate, read-out: Inhibitory activity (IC50, nM) MAO-A
T2 construct: purchased Sigma-Aldrich
T2 sequence (P21397 1-527): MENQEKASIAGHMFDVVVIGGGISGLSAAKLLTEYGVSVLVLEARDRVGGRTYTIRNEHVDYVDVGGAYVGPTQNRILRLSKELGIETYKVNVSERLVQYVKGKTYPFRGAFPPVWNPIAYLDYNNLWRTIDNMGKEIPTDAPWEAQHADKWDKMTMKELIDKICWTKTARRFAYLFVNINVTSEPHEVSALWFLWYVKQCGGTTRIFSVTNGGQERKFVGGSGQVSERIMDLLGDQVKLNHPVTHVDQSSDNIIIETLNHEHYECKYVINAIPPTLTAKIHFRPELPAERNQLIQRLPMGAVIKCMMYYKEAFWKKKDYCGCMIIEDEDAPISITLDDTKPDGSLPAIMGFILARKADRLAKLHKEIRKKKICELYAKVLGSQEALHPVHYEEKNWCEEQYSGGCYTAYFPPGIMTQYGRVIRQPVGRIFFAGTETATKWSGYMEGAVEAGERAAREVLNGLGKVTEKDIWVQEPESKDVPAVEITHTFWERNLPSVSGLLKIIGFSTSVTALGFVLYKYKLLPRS
Method in brief: (§1)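 Enzyme preincubated 60 min at 37 °C with compound (six-point curve, 1% DMSO final) in 50 mM sodium phosphate pH 7.4, then Amplex Red 400 μM and HRP 2 U/mL added with substrate: MAO-A 0.5 mM tyramine, MAO-B 1 mM benzylamine, DAO 1 mM putrescine. Resorufin fluorescence read after 1 h; IC50 by four-parameter logistic fit.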

[3] = target: T3, recombinant human MAO-B (monoamine oxidase-B) (Homo sapiens, UniProt P27338); assay: Amplex Red HRP-coupled amine oxidase assay, recombinant human MAO-B; settings: 1 mM benzylamine substrate, read-out: Inhibitory activity (IC50, nM) MAO-B
T3 construct: purchased Sigma-Aldrich
T3 sequence (P27338 1-520): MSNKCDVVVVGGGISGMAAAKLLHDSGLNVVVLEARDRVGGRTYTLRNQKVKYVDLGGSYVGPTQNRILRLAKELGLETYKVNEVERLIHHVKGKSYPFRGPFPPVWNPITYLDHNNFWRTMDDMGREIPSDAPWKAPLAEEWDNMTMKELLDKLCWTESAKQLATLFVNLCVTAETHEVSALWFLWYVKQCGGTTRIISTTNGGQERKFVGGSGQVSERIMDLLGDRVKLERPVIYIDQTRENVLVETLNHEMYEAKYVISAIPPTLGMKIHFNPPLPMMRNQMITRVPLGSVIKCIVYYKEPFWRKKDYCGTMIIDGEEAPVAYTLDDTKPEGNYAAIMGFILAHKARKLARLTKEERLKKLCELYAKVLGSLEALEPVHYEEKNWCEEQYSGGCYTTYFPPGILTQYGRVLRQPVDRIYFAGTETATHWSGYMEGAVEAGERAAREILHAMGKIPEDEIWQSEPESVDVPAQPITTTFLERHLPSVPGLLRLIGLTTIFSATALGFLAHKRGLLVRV
Method in brief: as §1

[4] = target: T4, recombinant human DAO (diamine oxidase) (Homo sapiens, UniProt P19801); assay: Amplex Red HRP-coupled amine oxidase assay, recombinant human DAO; settings: 1 mM putrescine substrate, read-out: Inhibitory activity (IC50, nM) DAO
T4 construct: purchased R&D systems
T4 sequence (P19801 20-751): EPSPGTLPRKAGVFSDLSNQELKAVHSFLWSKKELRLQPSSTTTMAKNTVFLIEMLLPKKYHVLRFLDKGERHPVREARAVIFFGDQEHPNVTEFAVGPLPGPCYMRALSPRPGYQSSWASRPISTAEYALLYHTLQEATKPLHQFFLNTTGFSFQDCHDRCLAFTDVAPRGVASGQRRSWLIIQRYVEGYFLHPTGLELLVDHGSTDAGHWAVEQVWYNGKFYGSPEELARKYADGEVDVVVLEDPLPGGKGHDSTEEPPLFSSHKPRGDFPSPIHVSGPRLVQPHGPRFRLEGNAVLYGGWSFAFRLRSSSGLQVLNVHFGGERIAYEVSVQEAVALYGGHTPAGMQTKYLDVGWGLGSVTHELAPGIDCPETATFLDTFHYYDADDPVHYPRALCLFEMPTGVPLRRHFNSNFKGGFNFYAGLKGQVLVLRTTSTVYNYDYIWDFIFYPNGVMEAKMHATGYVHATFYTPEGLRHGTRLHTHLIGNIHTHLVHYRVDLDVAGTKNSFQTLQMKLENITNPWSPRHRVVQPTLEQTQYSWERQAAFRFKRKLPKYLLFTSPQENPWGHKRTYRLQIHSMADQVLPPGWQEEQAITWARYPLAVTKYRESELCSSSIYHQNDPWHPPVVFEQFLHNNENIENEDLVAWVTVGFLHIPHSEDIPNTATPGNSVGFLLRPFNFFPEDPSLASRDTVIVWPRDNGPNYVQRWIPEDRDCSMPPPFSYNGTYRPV
Method in brief: as §1

Structure (SMILES)	IC50 [1] [nM]	IC50 [2] [nM]	IC50 [3] [nM]	IC50 [4] [nM]
COC(=O)c1cc(-c2cc(S(=O)(=O)NC3CC3)ccc2OC)c2ncn(C/C(F)=C/CN)c2c1 [Example 27, methyl (Z)-1-(4-amino-2-fluorobut-2-en-1-yl)-4-(5-(N-cyclopropylsulfamoyl)-2-methoxyphenyl)-1H-benzo[d]imidazol-6-carboxylate hydrochloride]	31.3	45700	> 100000	16100
NC/C=C(\F)Cn1cnc2c(-c3cccnc3)cc(C(F)(F)F)cc21 [Example 172, (Z)-3-fluoro-4-(4-(pyridin-3-yl)-6-(trifluoromethyl)-1H-benzo[d]imidazol-1-yl)but-2-en-1-amine hydrochloride]	311	17800	51600	3520
COC(=O)c1cc(-c2cccc(S(=O)(=O)NC3CC3)c2)c2ncn(C/C(F)=C/CN)c2c1 [Example 29, methyl (Z)-1-(4-amino-2-fluorobut-2-en-1-yl)-4-(3-(N-cyclopropylsulfamoyl)phenyl)-1H-benzo[d]imidazol-6-carboxylate hydrochloride]	34.9	> 100000	> 100000	1370
CNS(=O)(=O)c1ccc(OC)c(-c2cc(C(=O)OC)cc3c2ncn3C/C(F)=C/CN)c1 [Example 24, methyl (Z)-1-(4-amino-2-fluorobut-2-en-1-yl)-4-(2-methoxy-5-(N-methylsulfamoyl)phenyl)-1H-benzo[d]imidazol-6-carboxylate hydrochloride]	15.9	> 100000	> 100000	21800
COc1ccc(S(=O)(=O)NC2CC2)cc1-c1cccc2c1nnn2C/C(F)=C/CN [Example 108, (Z)-3-(1-(4-amino-2-fluorobut-2-en-1-yl)-1H-benzo[d][1,2,3]triazol-4-yl)-N-cyclopropyl-4-methoxybenzenesulfonamide hydrochloride]	42	> 100000	> 100000	> 100000
Cc1nc2c(-c3cccc(S(=O)(=O)N4CCCC4)c3)cccc2n1C/C(F)=C/CN [Example 60, (Z)-3-fluoro-4-(2-methyl-4-(3-(pyrrolidin-1-ylsulfonyl)phenyl)-1H-benzo[d]imidazol-1-yl)but-2-en-1-amine hydrochloride]	92	64200	> 100000	636
CNS(=O)(=O)c1ccc(OC)c(-c2cccc3c2nnn3C/C(F)=C/CN)c1 [Example 105, (Z)-3-(1-(4-amino-2-fluorobut-2-en-1-yl)-1H-benzo[d][1,2,3]triazol-4-yl)-4-methoxy-N-methylbenzenesulfonamide hydrochloride]	26	55100	> 100000	36000
CNS(=O)(=O)c1cccc(-c2cc(C(F)(F)F)cc3c2ncn3C/C(F)=C/CN)c1 [Example 20, (Z)-3-(1-(4-amino-2-fluorobut-2-en-1-yl)-6-(trifluoromethyl)-1H-benzo[d]imidazol-4-yl)-N-methylbenzenesulfonamide hydrochloride]	77	> 100000	> 100000	> 100000

Continued, values first:

IC50 [1] [nM]	IC50 [2] [nM]	IC50 [3] [nM]	IC50 [4] [nM]	Structure (SMILES)
83	> 100000	> 100000	646	COC(=O)c1cc(-c2cccc(S(C)(=O)=O)c2)c2nc(C)n(C/C(F)=C/CN)c2c1 [Example 67, methyl (Z)-1-(4-amino-2-fluorobut-2-en-1-yl)-2-methyl-4-(3-(methylsulfonyl)phenyl)-1H-benzo[d]imidazol-6-carboxylate hydrochloride]
58	47900	> 100000	1810	CNS(=O)(=O)c1cccc(-c2cc(C(=O)OC)cc3c2nc(C)n3C/C(F)=C/CN)c1 [Example 73, methyl (Z)-1-(4-amino-2-fluorobut-2-en-1-yl)-2-methyl-4-(3-(N-methylsulfamoyl)phenyl)-1H-benzo[d]imidazol-6-carboxylate hydrochloride]
58	12400	> 100000	24600	Cc1nc2c(-c3cccc(S(=O)(=O)N(C)C)c3)cc(C(=O)N(C)C)cc2n1C/C(F)=C/CN [Example 76, (Z)-1-(4-amino-2-fluorobut-2-en-1-yl)-4-(3-(N,N-dimethylsulfamoyl)phenyl)-N,N,2-trimethyl-1H-benzo[d]imidazol-6-carboxamide hydrochloride]
74	6540	> 100000	227	Cc1nc2c(-c3cccc(S(=O)(=O)N(C)C)c3)cccc2n1C/C(F)=C/CN [Example 56, (Z)-3-(1-(4-amino-2-fluorobut-2-en-1-yl)-2-methyl-1H-benzo[d]imidazol-4-yl)-N,N-dimeth ylbenzenesulfonamide hydrochloride]
65	65000	> 100000	6690	CCc1nc2c(-c3cccc(S(=O)(=O)N(C)C)c3)cccc2n1C/C(F)=C/CN [Example 84, (Z)-3-(1-(4-amino-2-fluorobut-2-en-1-yl)-2-ethyl-1H-benzo[d]imidazol-4-yl)-N,N-dimethyl benzenesulfonamide hydrochloride]
